Results taken from patent US20230183193A1, “4-DIFLUOROMETHYL BENZOYL AMIDES WITH HERBICIDAL ACTION” (BAYER CROPSCIENCE AKTIENGESELLSCHAFT, priority 2017, published 2023).

Assays:
Assay type in all cases: in vivo
Matricaria inodora [1] = test: Pre-emergence herbicidal action, MATIN; details: dosage 320 g/ha, scored visually after 3 weeks vs untreated controls
Outline: (§1)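 Weed seeds were laid out in sandy loam and covered with soil, then the soil surface was treated with an aqueous suspension or emulsion of the formulated compound containing 0.2% wetting agent. Pots stayed in the greenhouse for 3 weeks before damage was rated visually against untreated plants.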

Amaranthus retroflexus [2] = test: Post-emergence herbicidal action, AMARE; details: 80 g/ha, Table D
Outline: (§2)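 Greenhouse-grown weeds in sandy loam, treated at the one-leaf stage 2 to 3 weeks after sowing with WP or EC formulations sprayed as aqueous suspension/emulsion at 600 to […] water plus 0.2% wetting agent. Visual scoring after about 3 weeks versus untreated controls, 0% (like control) to 100% (plants dead).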

LOLMU = test: Pre-emergence herbicidal action, LOLMU; details: Table L
Setaria viridis [3] = test: Post-emergence herbicidal action, SETVI; details: for Herbicidal efficacy against SETVI: Table M
Outline: as §2

Abutilon theophrasti [4] = test: Pre-emergence herbicidal action, ABUTH; details: dosage 320 g/ha, scored visually after 3 weeks vs untreated controls
Outline: as §1

Polygonum convolvulus = test: Pre-emergence herbicidal action, POLCO; details: Table L
Outline: as §1

Abutilon theophrasti [5] = test: Post-emergence herbicidal action, ABUTH; details: 80 g/ha, Table D
Outline: as §2

Stellaria media [6] = test: Post-emergence herbicidal action, STEME; details: 80 g/ha, Table D
Outline: as §2

Matricaria inodora [7] = test: Post-emergence herbicidal action, MATIN; details: Table M
Description: (§3) Seeds of monocotyledonous and dicotyledonous weed and crop plants are laid out in sandy loam soil in wood-fiber pots, covered with soil and cultivated in a greenhouse under good growth conditions. 2 to 3 weeks after sowing, the test plants are treated at the one-leaf stage. The compounds of the invention, formulated in the form of wettable powders (WP) or as emulsion concentrates (EC), are then sprayed onto the green parts of the plants in the form of an aqueous suspension or emulsion at a water application rate equating to […], with addition of 0.2% wetting agent. After the test plants have been left to stand in the greenhouse under optimal growth conditions for about 3 weeks, the action of the preparations is assessed visually in comparison to untreated controls (herbicidal action in percent (%): 100% activity=the plants have died, 0% activity=like control plants). […] At the same time, inventive compounds leave Gramineae crops such as barley, wheat, rye, millet/sorghum, corn or rice virtually undamaged when applied post-emergence, even at high active compound dosages. In addition, some substances are also harmless to dicotyledonous crops such as soya, cotton, oilseed rape, sugar beet or potatoes. Some of the compounds according to the invention have high selectivity and are therefore suitable for controlling unwanted vegetation in agricultural crops by the post-emergence method. The data of Tables C and D below illustrate, in an exemplary manner, the […] herbicidal action of the compounds according to the invention, the herbicidal activity being stated in percent.
(§4) For comparison, the herbicidal activity of numerous compounds according to the invention was tested with the structurally closest compounds known from the documents WO 2011/035874, WO 2012/028579 and WO 2012/126932, by the pre- and post-emergence method.

Pharbitis purpureum = test: Post-emergence herbicidal action, PHBPU; details: 80 g/ha, Table D
Outline: as §2

Viola tricolor [8] = test: Pre-emergence herbicidal action, VIOTR; details: for Herbicidal efficacy against VIOTR: Table L
Outline: as §1

Veronica persica = test: Post-emergence herbicidal action, VERPE; details: Table M
Description: as §3, §4

Alopecurus myosuroides [9] = test: Pre-emergence herbicidal action, ALOMY; details: for Herbicidal efficacy against ALOMY: Table L
Outline: as §1

Setaria viridis [10] = test: Pre-emergence herbicidal action, SETVI; details: for Herbicidal efficacy against SETVI: Table L
Outline: as §1

ECHCG = test: Post-emergence herbicidal action, ECHCG; details: 80 g/ha, Table C
Outline: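 Weed and crop plants grown in sandy loam in the greenhouse, treated at the one-leaf stage 2–3 weeks after sowing. Damage scored visually after about 3 weeks vs untreated controls (0% = control, 100% = dead).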

Avena fatua [11] = test: Post-emergence herbicidal action, AVEFA; details: for Herbicidal efficacy against AVEFA: Table M
Outline: as §2

Viola tricolor [12] = test: Post-emergence herbicidal action, VIOTR; details: for Herbicidal efficacy against VIOTR: Table M
Outline: as §2

Stellaria media [13] = test: Pre-emergence herbicidal action, STEME; details: dosage 320 g/ha, scored visually after 3 weeks vs untreated controls
Outline: as §1

Amaranthus retroflexus [14] = test: Pre-emergence herbicidal action, AMARE; details: dosage 320 g/ha, scored visually after 3 weeks vs untreated controls
Outline: as §1

Avena fatua [15] = test: Pre-emergence herbicidal action, AVEFA; details: for Herbicidal efficacy against AVEFA: Table L
Outline: as §1

Alopecurus myosuroides [16] = test: Post-emergence herbicidal action, ALOMY; details: for Herbicidal efficacy against ALOMY: Table M
Outline: as §2

Cyperus serotinus = test: Pre-emergence herbicidal action, CYPES; details: for Herbicidal efficacy against CYPES: Table L
Outline: as §1

[17] = dosage 320 g/ha, scored visually after 3 weeks vs untreated controls

## Cc1nnc(NC(=O)c2ccc(C(F)F)c(S(C)(=O)=O)c2C)o1 [Example 7-3]
Matricaria inodora [1]
  herbicidal activity MATIN: 100%
Amaranthus retroflexus [2]
  herbicidal activity AMARE: 90%
LOLMU; dosage 80 g/ha
  Herbicidal efficacy against LOLMU: 80
LOLMU; dosage 320 g/ha
  Herbicidal efficacy against LOLMU: 100
Setaria viridis [3]; 80 g/ha, Table C
  herbicidal activity SETVI: 100%
Setaria viridis [3]; dosage 20 g/ha
  Herbicidal efficacy against SETVI: 90
Setaria viridis [3]; dosage 80 g/ha
  Herbicidal efficacy against SETVI: 100
Abutilon theophrasti [4]
  herbicidal activity ABUTH: 100%
Polygonum convolvulus; dosage 80 g/ha
  Herbicidal efficacy against POLCO: 40
Polygonum convolvulus; dosage 320 g/ha
  Herbicidal efficacy against POLCO: 70
Abutilon theophrasti [5]
  herbicidal activity ABUTH: 100%
Stellaria media [6]
  Herbicidal activity STEME: 100%
Matricaria inodora [7]; dosage 20 g/ha
  Herbicidal efficacy against MATIN: 90
Matricaria inodora [7]; dosage 80 g/ha
  Herbicidal efficacy against MATIN: 100
Pharbitis purpureum
  Herbicidal activity PHBPU: 90%
Viola tricolor [8]; dosage 80 g/ha
  Herbicidal efficacy against VIOTR: 100
Viola tricolor [8]; dosage 320 g/ha
  Herbicidal efficacy against VIOTR: 100
Viola tricolor [8]; [17]
  herbicidal activity VIOTR: 100%
Veronica persica; dosage 20 g/ha
  Herbicidal efficacy against VERPE: 100
Veronica persica; dosage 80 g/ha
  Herbicidal efficacy against VERPE: 100
Alopecurus myosuroides [9]; dosage 80 g/ha
  Herbicidal efficacy against ALOMY: 90
Alopecurus myosuroides [9]; dosage 320 g/ha
  Herbicidal efficacy against ALOMY: 100
Alopecurus myosuroides [9]; [17]
  herbicidal activity ALOMY: 100%
Setaria viridis [10]; dosage 80 g/ha
  Herbicidal efficacy against SETVI: 100
Setaria viridis [10]; dosage 320 g/ha
  Herbicidal efficacy against SETVI: 100
Setaria viridis [10]; [17]
  herbicidal activity SETVI: 100%
ECHCG
  Herbicidal activity ECHCG: 90%
Avena fatua [11]; 80 g/ha, Table C
  herbicidal activity AVEFA: 100%
Avena fatua [11]; dosage 20 g/ha
  Herbicidal efficacy against AVEFA: 90
Avena fatua [11]; dosage 80 g/ha
  Herbicidal efficacy against AVEFA: 100
Viola tricolor [12]; 80 g/ha, Table D
  herbicidal activity VIOTR: 100%
Viola tricolor [12]; dosage 20 g/ha
  Herbicidal efficacy against VIOTR: 100
Viola tricolor [12]; dosage 80 g/ha
  Herbicidal efficacy against VIOTR: 100
Stellaria media [13]
  Herbicidal activity STEME: 100%
Amaranthus retroflexus [14]
  herbicidal activity AMARE: 100%
Avena fatua [15]; dosage 80 g/ha
  Herbicidal efficacy against AVEFA: 90
Avena fatua [15]; dosage 320 g/ha
  Herbicidal efficacy against AVEFA: 100
Avena fatua [15]; [17]
  herbicidal activity AVEFA: 100%
Alopecurus myosuroides [16]; 80 g/ha, Table C
  herbicidal activity ALOMY: 100%
Alopecurus myosuroides [16]; dosage 20 g/ha
  Herbicidal efficacy against ALOMY: 60
Alopecurus myosuroides [16]; dosage 80 g/ha
  Herbicidal efficacy against ALOMY: 100
Cyperus serotinus; dosage 80 g/ha
  Herbicidal efficacy against CYPES: 100
Cyperus serotinus; dosage 320 g/ha
  Herbicidal efficacy against CYPES: 100
Cyperus serotinus; [17]
  herbicidal activity CYPES: 100%
